The results in this text go back to patent publication US8603999B2, “Amphiphile prodrugs” (Commonwealth Scientific and Industrial Research Organisation, priority 2008, dated 2013).

Data set [1] concerns Carboxylesterase from porcine liver. Briefly: Hydrolysis of prodrugs by porcine liver carboxylesterase (CES), LC/MS. Here is the method: High purity Capecitabine (as solid crystals) was purchased from Xingcheng Chemphar Co., Ltd, P.R.China. […] Millipore water was used to prepare the prodrugs solutions with appropriate concentrations, while phosphate buffered saline (pH 7.4, PBS) was used in the preparation of different concentrations of enzyme.
Stock solution of Capecitabine was prepared by dissolving pure white Capecitabine into warm water. 1 mg/mL of Capecitabine solution was then further obtained by diluting the stock solution with milli-Q water. […] Prior to the experiments, prodrug particles were incubated at 37° C. for at least two weeks to achieve the equilibrium state of certain phases.
Stock solution of 10 mg/mL carboxylesterase solution was prepared by weighting 10 mg of powder enzyme in 1 mL of PBS buffer and shaking gently by hand. The concentration of the enzyme solution was adjusted to 1 mg/mL and 0.01 mg/mL by dilution of the stock solution. These solutions were used for the enzymatic hydrolysis of the prodrugs and Capecitabine respectively. […]
To measure the rate of the enzymatic reaction precisely, the starting substrate and the enzyme solution were mixed for a defined time by rapidly mixing together the two stock solutions and shaking. The time at which enzyme solution was added was taken as time zero for the hydrolysis reaction. The mixture was maintained at 37° C. throughout the experiment. The concentration of the hydrolysis product was then measured at various times using LC/MS (Finnigan LCQ Series, Thermo Scientific, USA). The time at which the sample was injected into the LC column was taken to be the reaction time for such sample. The hydrolysis progress curve showing the decrease in the concentration of original substrate was subsequently plotted.
The concentrations of prodrugs were determined using Thermo Finnigan LC/MS equipped with an atmospheric pressure chemical ionization (APCI) probe in positive ion mode. 10 μL of sample withdrawn from the reaction solution was injected directly into a Platinum EPS C18 100 Å 5u LC column with the length of 150 mm and internal diameter of 4.6 mm (Alltech, Australia). A mixture of 30% LCMS grade water and 70% Methanol was employed as mobile phase with the flow rate of 1 ml/min. The sample after the column separation was eluted to APCI source (MS full positive scan) to determine the molecular weight of the substrates. The vaporizer temperature of the APCI probe was set at 450° C. and the capillary temperature was operated at 200° C. The sample temperature was well maintained at 37° C. during the entire measurement by incubating the sample in the temperature controlled auto-sampler. Data were acquired and processed with Xcalibur Quan chromatography software.
The decreased concentration of substrate and the increased hydrolysis product 5′-dFCyd were detected based on the different retention time on chromatogram and m/z value in the MS positive scan. […] The decreased/increased ratio of reactant/5′dFCyd was determined by comparing the integration areas of the corresponding peaks.
The enzyme hydrolysis reaction was plotted as the logarithm of the ratio of original prodrug concentration to the decreased concentration of prodrug at a certain incubation time as a function of reaction time (Ln [S]0/[S] vs T).
In order to compare the enzymatic activity for each individual substrate to CES, we calculate a global reaction rate expressed as a specific activity (SA) (μmol/min/mg enzyme): SA=Δ[S]/(Δt·[CCES])
Here, as is common when discussing the SA, [CCES] is the enzyme concentration in mg/ml, Δ[S] is the substrate concentration change in μmol/ml during Δt time.

The nature of data set [2]: Particle size distribution of dispersions by dynamic light scattering. Type of data set: physicochemical. Here is the method: BASF) equivalent to 10% (w/w) of neat amphiphile and absolute ethanol were weighed in a sample vial. […] These crude dispersions were then passed through a series of PC membranes from the size range from 1 um to 100 nm to obtain a more uniform size distribution for the particles. The equipment used for size control is a mini-extruder (Avanti Polar Lipids, USA). […] The final concentration of colloidosomes were determined by ultra performance liquid chromatography (UPLC) and then diluted to 1 mg/mL for use in the enzyme hydrolysis study The particle size distribution and morphology of the above suspensions were determined using the method as described herein by using zetasizer and cryo-TEM characterisation methods. Solid lipid particles of prodrug 5-FCPal were prepared using mechanical methods. […] The melted prodrug and poloxamer mixture was then transferred to 40 mL of pre-warmed water upon vigorous vortexing. The mixture was then sheared with a rough homogenizer (Ultra Turrax®, T18 Basic, IKA® Werke GmbH & Co. KG, Germany) at 14,000 rpm for 10 min. The resultant dispersion was further transferred to the ultrasonic benchtop cleaner for a few hours of ultra sonication. […] Determination of the particle size distribution of the colloidosome and solid lipid particle dispersions were carried out using a Zetasizer (nano zs, Malvern, England) equipped with a He—Ne Laser (4 mw, 633 nm) and an avalanche photodiode detector. […] […] The size distribution was recorded by intensity.

Data set [3] is described as follows: Lyotropic phase behaviour: water penetration scans, SAXS and XRD. Type of data set: physicochemical. The following applies: for Lattice parameter: in excess water, SAXS. The source says:
Lyotropic mesophase behaviour was studied using water penetration experiments. Neat amphiphile was placed on a glass slide, melted and cooled to facilitate sample homogenization and then covered with a glass cover slip. A few drops of Milli-Q water were then introduced to the edge of the cover slip which was drawn in by capillary action resulting in a concentration gradient from pure amphiphile in the centre to pure water around the edges of the cover slip. The generated mesophases were identified by their characteristic birefringent textures. Samples were then heated at 2° C./min from room temperature to ˜99° C. using an FP90 Linkam hotstage (Linkam Scientific Instruments, England). Thermotropic phase behaviour was also examined in the similar method but in the absence of water. The phases were viewed using an Olympus GX51 inverted polarising microscope (Olympus Australia Pty. Ltd, Australia) equipped with an Olympus C-5060 digital camera for image capture. All images were taken with 100× magnification unless elsewhere stated. […] The bulk phase of the binary amphiphile/water system was prepared by weighing the appropriate amount of sample and water in a sample vial. For those samples requiring pre-treatment, the samples were quickly melted in a pre-heated temperature controlled silicon-oil heating bath prior to addition of water. […] The prepared samples were analysed using an Anton-Paar SAXSess (Graz, Austria) with PANalytical PW3830 stand-alone X-ray generator operating at 40 kv, 50 mA with a sealed-tube Cu anode (λCu—Kα=0.154 nm). The samples were loaded into a paste cell sample holder at room temperature. […] Temperature control was via a TCU Temperature Control Unit (Anton Paar). […] The scattering results were recorded and analysed by the accompanied Anton Paar software.

Data set [4] is described as follows: Thermal decomposition by TGA. Type of data set: physicochemical. The following applies: neat prodrug.
In data set [5] the test system is 4T1 cells (mouse breast cancer cells). The data set can be described thus: 4T1 mouse breast tumour in BALB/c mice, oral daily dosing for 21 days (Example 6). Type of data set: in vivo. Here is the method: 90 female BALB/c were injected with 5×10^4 4T1 cells (mouse breast cancer cells) in the second mammary fat pad on the right hand side. The tumour was allowed to form for 6 days prior to drug administration. On day 6, tumours were palpable in most of the mice. […] Mice were placed into groups of 6, and 15 different treatments were administered orally on a daily basis for 21 days.
The length and breadth of the tumours were measured and recorded on day 1, 4, 7, 14, and 21 of the drug administration. On Day 22, mice were euthanized. Blood was collected via cardiac puncture, followed by removal of the tumour, liver, spleen and kidney for histological analysis. Lungs were injected with indium ink prior to removal to allow for quantification of the number of lung metastasis in each animal.

A further data set deals with 4T1 tumour. The data set can be described thus: Second 4T1 tumour study, daily dosing for 17 days (Example 7). An excerpt: Also, the dosage of both compounds was increased to 1.5 mmol for each treatment.
The mark [6] stands for this setting: porcine liver CES, 37° C., enzyme 0.5 mg/mL for prodrugs.
[7] abbreviates: porcine liver CES, 37° C., enzyme 0.5 mg/mL for prodrugs, 0.005 mg/ml for Capecitabine.
Setting [8] is: DLS at 25° C., 5-FCPhy and 5-FCOle after membrane extrusion, 5-FCPal solid lipid particles.

In the case of “5′-deoxy-5-fluoro-N^4-(3,7,11,15-tetramethyl-hexadecyl-1-oxycarbonyl)cytidine [Prodrug 5-FCPhy]”, the “SA relative to 5-FCPal” value in data set [1] (CES hydrolysis) is given as “about 4 times”. Also, in data set [1] (setting [6]), the Specific Activity (SA) at time t = 12 h was determined as 0.89 µmol/min/mg and the Specific Activity (SA) at time t = 24 h was 1.15 µmol/min/mg. Further, in data set [1] (setting [7]), the Specific Activity (SA) at time t = 1 h was found to be 1.03 µmol/min/mg, the Specific Activity (SA) at time t = 2 h was found to be 1.3 µmol/min/mg and the Specific Activity (SA) at time t = 6 h was determined as 0.67 µmol/min/mg. In data set [2] (setting [8]), the “mean (average) particle size” value is given as 164 nm and the particle size distribution is 100-300 nm. The “Average Particle size” value in data set [2] (dispersions used in the hydrolysis study, physiological temperature) is on record as 219 nm. Further, the “lyotropic phase behaviour in water penetration scans” value in data set [3] (concentration gradient from neat amphiphile to pure water, heated from room temperature) was 3D inversed bicontinous cubic phase (Pn3m space group) initially and then transform to 2D hexagonal phase. The substance further yielded a Lattice parameter in data set [3] (37° C.) of 5.60 nm. The Lattice parameter entry in data set [3] (RT (25° C.)) is given as “RT: H2(5.82 nm)”. In data set [3] (particle form in water at physiological temperature), the Lyotropic phase behaviour result is “Hexosome”. The Phases entry in data set [3] (without water, RT, 37° C., equilibrated) is recorded as “Amorphous”. In addition, the “temperature at which decomposition starts (TGA)” value in data set [4] was found to be 95 °C. For the same substance, the “overall tumour volume at day 21” value in data set [5] (4T1 tumour, oral daily, day 21) is on record as “second smallest overall tumour volume”. The “behaviour and appearance of the treated mice” value in data set [5] (4T1 tumour-bearing BALB/c mice, oral daily for 21 days) was “active and healthy”. Further, the “tumours from animals sacrificed at 17 days (images)” value with 4T1 tumour (FIG. 19) was “significantly smaller tumours”. Also, in the data set on 4T1 tumour (mouse, in vivo), the “spleens from animals sacrificed at 17 days (images)” value is recorded as “normal spleens”.
